Assay results published in US9326988B2, “Treatment and/or prevention of parkinson's disease dementia with ceftriaxone” (CHUNG SHAN MEDICAL UNIVERSITY, priority 2012, dated 2016).

Key:
rats with PDD = assay: Object recognition test in MPTP-HCl-induced PDD rats; assay type: in vivo, male Wistar rats
Method: 1-methyl-4-phenyl-1,2,3,6-tetrahydropyridine hydrochloride (MPTP-HCl) was used to induce PDD in the rats, and the therapeutic effect of ceftriaxone on PDD was evaluated via behavioral tests and histopathological assessment of the brain for the rats. The experiments of this example were conducted substantially according to the method as described in Ho Y. J. et al. (2011), Behav. Brain Res., 219:280-290.
The rats in the pathological control group, the preventive groups, and the treatment groups were anesthetized using Zoletil (Virbac, Carros, France; 20 mg/kg, intraperitoneal injection). Afterward, 0.5 M MPTP-HCl (in saline) was slowly infused bilaterally into the substantia nigra pars compacta (SNc) of the mesencephalon of each rat in the pathological control group, the preventive groups, and the treatment groups (0.21 mg/side) so as to induce the same to develop PDD.
(§1) 5 days before the MPTP-HCl injection, ceftriaxone (Sigma) was administered to the rats in the preventive groups 1,2 via intraperitoneal injection respectively at a daily dose of 100 mg/kg and at a daily dose of 200 mg/kg until the end of the 14th day after the MPTP-HCl injection. After the MPTP-HCl injection, ceftriaxone was administered to the rats in the treatment group 1 and the sham-operated groups 2,3 via intraperitoneal injection respectively at a daily dose of 200 mg/kg, at a daily dose of 100 mg/kg, and at a daily dose of 200 mg/kg, and saline was administered to the rats in the pathological control group and the sham-operated group 1 via intraperitoneal injection at a daily dose of 1 mL/kg. In addition, starting on the 3rd day after the MPTP-HCl injection, ceftriaxone was administered to the rats in the treatment groups 2,3 via intraperitoneal injection respectively at a daily dose of 100 mg/kg and at a daily dose of 200 mg/kg. The rats in the pathological control group, the treatment groups 1,2,3, and the sham-operated groups 1,2,3 were subjected to the once-a-day administration until the end of the 14th day after the MPTP-HCl injection.
Starting on the 8th day after the MPTP-HCl injection, the rats in each group were subjected to the T-maze test as described in section C of this example. Starting on the 12th day after the MPTP-HCl injection, the rats in each group were subjected to the object recognition test as described in section D of this example. On the 15th day after the MPTP-HCl injection, the rats in the treatment group 1, the sham-operated group 1, and the pathological control group were subjected to the histopathological analysis as described in section E of this example.
In order to examine the effect of ceftriaxone on the recognition and/or memory ability of the rats with PDD, starting on the 12th day after the MPTP-HCl injection, all of the rats in each group were subjected to an object recognition test lasting a total of three days.
The object recognition test is described as follows. The object recognition test included four trials. The first and second trilas were conducted respectively on the 12th and 13th after the MPTP-HCl injection, and the third and fourth trials were conducted on the 14th day after the MPTP-HCl injection. Each of the four trials lasted 5 minutes. The time interval between the first and second trials, and that between the second and third trials were 1 day. The time interval between the third and fourth trials was 5 minutes. At the beginning of each of the four trials, the respective rat was placed in the open box and adjacent to the corner C4 thereof. During the first, second, and third trials, the objects A1, A2, A3 were disposed in the open box for being able to be explored by the respective rat (see FIG. 2(A)). During the fourth trial, the object A3 was replaced with the object B (see FIG. 2(B)). During the object recognition test, a video camera installed above the open box was used to monitor and record the behavior of the respective rat.

normal rats = assay: T-maze test (working memory) in sham-operated rats; assay type: in vivo, male Wistar rats; conditions: determined 10th day (FIG. 3)
Method: The rats in the sham-operated groups were generally subjected to the same surgical procedures for the rats in the pathological control group, the preventive groups, and the treatment groups, except that an equal volume of saline was infused bilaterally into the SNc of the mesencephalon of rats in the shame-operated groups.
as §1, with “The rats in the pathological control group, the treatment groups 1,2,3, and the sham-operated groups 1,2,3 were subjected to the once-a-day administration until the end of the 14th day after the MPTP-HCl injection.” left out

correct response rate compared to sham-operated group 1 (saline) (normal rats; sham-operated group 2: 100 mg/kg daily i.p. to 14th day): no statistical significance | correct response rate compared to sham-operated group 1 (saline) (normal rats; sham-operated group 3: 200 mg/kg daily i.p. to 14th day): no statistical significance
Compound: CO/N=C(\C(=O)N[C@@H]1C(=O)N2C(C(=O)O)=C(CSc3nc(=O)c(=O)[nH]n3C)CS[C@H]12)c1csc(N)n1 [ceftriaxone, Ceftriaxone]
percentage of exploration time spent on object B in the fourth trial versus object A3 in the third trial (rats with PDD; Example 1 preventive group 1: 100 mg/kg daily i.p. from 5 days before MPTP-HCl, determined 14th day (FIG. 4)): there is statistical significance | percentage of exploration time spent on object B in the fourth trial versus object A3 in the third trial (rats with PDD; Example 1 preventive group 2: 200 mg/kg daily i.p. from 5 days before MPTP-HCl, determined 14th day (FIG. 4)): there is statistical significance | percentage of exploration time spent on object B in the fourth trial versus object A3 in the third trial (rats with PDD; Example 1 treatment group 1: 200 mg/kg daily i.p. after MPTP-HCl injection to 14th day, determined 14th day (FIG. 4)): there is statistical significance | percentage of exploration time spent on object B in the fourth trial versus object A3 in the third trial (rats with PDD; Example 1 treatment group 2: 100 mg/kg daily i.p. starting 3rd day after MPTP-HCl, determined 14th day (FIG. 4)): there is statistical significance | percentage of exploration time spent on object B in the fourth trial versus object A3 in the third trial (rats with PDD; Example 1 treatment group 3: 200 mg/kg daily i.p. starting 3rd day after MPTP-HCl, determined 14th day (FIG. 4)): there is statistical significance | percentage of exploration time spent on object B in the fourth trial versus object A3 in the third trial (rats with PDD; Example 2 treatment group 1: 10 mg/kg daily i.p. after MPTP-HCl injection, determined 14th day (FIG. 8)): there is statistical significance | percentage of exploration time spent on object B in the fourth trial versus object A3 in the third trial (rats with PDD; Example 2 treatment group 2: 50 mg/kg daily i.p. after MPTP-HCl injection, determined 14th day (FIG. 8)): there is statistical significance
